From patent US11912679B2, “Aryl alkynamide derivatives” (Astellas Pharma, Inc., priority 2022, dated 2024) come the findings set out here.

As a reminder, the IC50 is the concentration that inhibits the measured activity by half.

The subject of this test is IRF pathway of THP-1. The test is described as follows: Test on the activity of IRF pathway of THP-1 (THP1-Dual reporter cells stimulated with 2'3'-cGAMP). The format is cell-based. The following applies: Homo sapiens, PMA-treated, 2'3'-cGAMP 5 ug/mL, QUANTI-Luc readout, read-out: IC50 of inhibition of the activity of IRF pathway. As to the method: 0.3 uM of PMA (phorbol myristate acetate, SIGMA, P1585) was added to THP1-Dual™ cells (NF-κB-SEAP IRF-Luc Reporter Monocytes, Invivogen, thpd-nfis), and the cells were cultured at 37° C. for 1 day in RPMI1640 with 10% Fetal Bovine Serum (FBS). A compound with a known concentration was added, and the cells were incubated at room temperature for 1 hour. Mammalian (non-canonical) CDN, cyclic [G(2′,5′)pA(3′,5′)p] (2′3′-cGAMP, Invivogen, tlrl-nacga23) was added to a final concentration of 5 ug/mL, and the cells were cultured at 37° C. On the following day, QUANTI-Luc™ (Secreted luciferase detection medium, Invivogen, rep-qlc) was added to the culture solution and the activity of IRF pathway was measured using a microplate reader. The inhibition ratio at each concentration was determined, where the activity of IRF pathway with no addition of the test compound or 2′3′-cGAMP was defined as 100% inhibition and the activity of IRF pathway with no addition of the test compound and with addition of 2′3′-cGAMP was defined as 0% inhibition. The IC50 value was calculated by sigmoid […] model non-linear regression analysis.
Turning to `O=C(C#Cc1ccc(-c2ccccc2)c(C(F)(F)F)c1)N1CCS(=O)(=O)CC1CO` (racemic) [Example 128, rac-(3R)-3-(hydroxymethyl)-4-{3-[2-(trifluoromethyl)[1,1′-biphenyl]-4-yl]prop-2-ynoyl}-1λ^6-thiomorpholine-1,1-dione], the IC50 was found to be 70 nM.

As to `CN1CCN(C(=O)C#Cc2ccccc2-c2ccccc2)CC1` [Example 1, 3-([1,1′-biphenyl]-2-yl)-1-(4-methylpiperazin-1-yl)prop-2-yn-1-one], the IC50 is 13400 nM.

As for `CN1CCN(C(=O)C#Cc2cccc(-c3ccccc3)c2)CC1` [Example 2], the IC50 was 1090 nM.

As for `CN1CCN(C(=O)C#Cc2ccc(-c3ccccc3)c(C(F)(F)F)c2)CC1` [Example 3], the IC50 came to 155 nM.

Take `CN1CCN(C(=O)C#Cc2ccc(-c3ccccc3)cn2)CC1` [Example 4]: the IC50 was found to be 236 nM.

As to `CN1CCN(C(=O)C#Cc2ccc(-c3ccccc3)nc2)CC1` [Example 5], the 50% inhibitory concentration (IC50) came out at 950 nM.

Regarding `CN1CCN(C(=O)C#Cc2cnn(-c3ccccc3)c2C(F)(F)F)CC1` [Example 6], the IC50 turned out to be 4820 nM.

On to `CN1CCN(C(=O)C#Cc2cn(-c3ccccc3)nc2C(F)(F)F)CC1` [Example 7], for which the IC50 was 2060 nM.

Take `CN1CCN(C(=O)C#Cc2ccc(-n3cccn3)cc2)CC1` [Example 8]: the IC50 came to 7750 nM.

Consider `O=C(C#Cc1ccc(-c2ccccc2)c(C(F)(F)F)c1)N1CC(O)(CO)C1` [Example 9], for which the 50% inhibitory concentration (IC50) stood at 116 nM.

On to `O=C(C#Cc1ccc(-c2ccccc2)c(C(F)(F)F)c1)N[C@H]1COC[C@@H]1O` [Example 10], for which the IC50 was found to be 182 nM.

As for `O=C(C#Cc1ccc(-c2ccccc2)c(C(F)(F)F)c1)N[C@@H]1CCNC1=O` [Example 11], the half-inhibitory concentration (IC50) was 146 nM.

With `O=C(C#Cc1ccc(-c2ccccc2)c(C(F)(F)F)c1)N[C@H]1CCNC1=O` [Example 12], the concentration for half-maximal inhibition (IC50) is 385 nM.

For `O=C(C#Cc1ccc(-c2ccccc2)c(C(F)(F)F)c1)N1CCN(C2CC2)CC1` [Example 13], the IC50 amounted to 1540 nM.

For `O=C(C#Cc1ccc(-c2ccccc2)c(C(F)(F)F)c1)N1CCN(C2COC2)CC1` [Example 14], the IC50 is 374 nM.

For `CC(C)N1CCN(C(=O)C#Cc2ccc(-c3ccccc3)c(C(F)(F)F)c2)CC1` [Example 15], the IC50 is 237 nM.

On to `O=C(C#Cc1ccc(-c2ccccc2)c(C(F)(F)F)c1)N1CCN(C2CCS(=O)(=O)C2)CC1` (stereo not drawn) [Example 16], for which the IC50 turned out to be 229 nM.

For the molecule `O=C(C#Cc1ccc(-c2ccccc2)c(C(F)(F)F)c1)N[C@@H]1COC[C@H]1O` [Example 17], the IC50 worked out at 233 nM.

As to `O=C(C#Cc1ccc(C2=CCOCC2)c(C(F)(F)F)c1)N1C[C@@H](O)[C@@H](O)C1` [Example 18], the IC50 was found to be 1410 nM.

For the molecule `CN1CCN(C(=O)C#Cc2ccc(-c3ccccc3)cc2)CC1` [Example 19], the IC50 worked out at 1390 nM.

With `NC(=O)[C@@H]1CCN(C(=O)C#Cc2ccc(-c3ccccc3)c(C(F)(F)F)c2)C1` [Example 20, (3R)-1-{3-[2-(trifluoromethyl)[1,1′-biphenyl]-4-yl]prop-2-ynoyl}pyrrolidine-3-carboxamide], the IC50 was 244 nM.

In the case of `O=C(C#Cc1ccc(-c2ccccc2)c(C(F)(F)F)c1)N1CCOCC1` [Example 21], the IC50 came out at 295 nM.

For `O=C(C#Cc1ccc(-c2ccccc2)c(C(F)(F)F)c1)N1CCSCC1` [Example 22], the IC50 came out at 210 nM.

For `NC(=O)[C@H]1CCCN1C(=O)C#Cc1ccc(-c2ccccc2)c(C(F)(F)F)c1` [Example 23], the IC50 stood at 91 nM.

As to `NC(=O)[C@@H]1CCCN1C(=O)C#Cc1ccc(-c2ccccc2)c(C(F)(F)F)c1` [Example 24], the half-inhibitory concentration (IC50) stood at 121 nM.

On to `NC(=O)[C@@H]1[C@@H](O)CCN1C(=O)C#Cc1ccc(-c2ccccc2)c(C(F)(F)F)c1` [Example 25], for which the IC50 came out at 158 nM.

Consider `O=C(C#Cc1ccc(-c2ccccc2)c(C(F)(F)F)c1)N1CCC(O)(CO)CC1` [Example 26], for which the IC50 was determined as 299 nM.

As to `NC(=O)[C@H]1CCN(C(=O)C#Cc2ccc(-c3ccccc3)c(C(F)(F)F)c2)C1` [Example 27], the IC50 was 216 nM.

`NC(=O)[C@@H]1C[C@H](O)CN1C(=O)C#Cc1ccc(-c2ccccc2)c(C(F)(F)F)c1` [Example 28]: the IC50 was 95 nM.

Regarding `CN(CC(N)=O)C(=O)C#Cc1ccc(-c2ccccc2)c(C(F)(F)F)c1` [Example 29], the IC50 amounted to 153 nM.

Turning to `NS(=O)(=O)CCNC(=O)C#Cc1ccc(-c2ccccc2)c(C(F)(F)F)c1` [Example 30], the IC50 is 159 nM.

On to `CS(=O)(=O)NCCNC(=O)C#Cc1ccc(-c2ccccc2)c(C(F)(F)F)c1` [Example 31], for which the IC50 was 115 nM.

`CS(=O)(=O)NCCCNC(=O)C#Cc1ccc(-c2ccccc2)c(C(F)(F)F)c1` [Example 32]: the IC50 was found to be 178 nM.

As for `NC(=O)N1CCN(C(=O)C#Cc2ccc(-c3ccccc3)c(C(F)(F)F)c2)CC1` [Example 37], the IC50 was 195 nM.

For `O=C(C#Cc1ccc(-c2ccccc2)c(C(F)(F)F)c1)N1CCS(=O)(=O)CC1` [Example 38], the IC50 stood at 88 nM.

For the molecule `O=C(C#Cc1ccc(-c2ccccc2)c(C(F)(F)F)c1)NC(CO)CO` [Example 39], the IC50 came to 351 nM.

In the case of `O=C(C#Cc1ccc(-c2ccc(OC(F)(F)F)cc2)c(C(F)(F)F)c1)NC[C@@H](O)CO` [Example 40], the IC50 turned out to be 422 nM.

Regarding `O=C(C#Cc1ccc(-c2ccc(OC(F)(F)F)cc2)c(C(F)(F)F)c1)NC[C@H](O)CO` [Example 41], the IC50 was 792 nM.

Regarding `O=C(C#Cc1ccc(-c2ccccc2)c(C(F)(F)F)c1)N1CC(O)C1` [Example 42], the IC50 stood at 158 nM.

On to `NC(=O)[C@H](CO)NC(=O)C#Cc1ccc(-c2ccccc2)c(C(F)(F)F)c1` [Example 45, N^2-{3-[2-(trifluoromethyl)[1,1′-biphenyl]-4-yl]prop-2-ynoyl}-L-serinamide], for which the concentration for half-maximal inhibition (IC50) worked out at 89 nM.

Consider `O=C(C#Cc1cnc(-c2ccccc2)c(C(F)(F)F)c1)N1C[C@@H](O)[C@@H](O)C1` [Example 47, 1-[(3R,4S)-3,4-dihydroxypyrrolidin-1-yl]-3-[6-phenyl-5-(trifluoromethyl)pyridin-3-yl]prop-2-yn-1-one], for which the IC50 was found to be 277 nM.

As for `O=C(C#Cc1ccc(-c2ccccc2)c(C(F)(F)F)c1)N(CCO)c1ccccc1` [Example 48], the IC50 amounted to 91 nM.

Take `NC(=O)CNC(=O)C#Cc1ccc(-c2ccccc2)c(C(F)(F)F)c1` [Example 49]: the IC50 amounted to 231 nM.

As to `NS(=O)(=O)c1cccc(NC(=O)C#Cc2ccc(-c3ccccc3)c(C(F)(F)F)c2)c1` [Example 50], the IC50 worked out at 48 nM.

Regarding `O=C(C#Cc1ccc(-c2ccccc2)c(C(F)(F)F)c1)N(CCO)C1CCOCC1` [Example 51], the 50% inhibitory concentration (IC50) is 184 nM.

For `O=C(C#Cc1ccc(-c2ccccc2)c(C(F)(F)F)c1)N(CCO)C1CC1` [Example 52], the half-inhibitory concentration (IC50) stood at 442 nM.

Take `CC(C)N(CCO)C(=O)C#Cc1ccc(-c2ccccc2)c(C(F)(F)F)c1` [Example 53]: the IC50 stood at 550 nM.

Take `COc1ccc(N(CCO)C(=O)C#Cc2ccc(-c3ccccc3)c(C(F)(F)F)c2)cn1` [Example 54]: the 50% inhibitory concentration (IC50) was 66 nM.

For `Cn1cc(N(CCO)C(=O)C#Cc2ccc(-c3ccccc3)c(C(F)(F)F)c2)cn1` [Example 55], the 50% inhibitory concentration (IC50) amounted to 83 nM.

Turning to `O=C(C#Cc1ccc(-c2cccc(OC(F)F)c2)c(C(F)(F)F)c1)N1C[C@H](O)[C@@H](O)C1` [Example 56], the IC50 worked out at 256 nM.

For `O=C(C#Cc1ccc(-c2cccc(OC(F)F)c2)c(C(F)(F)F)c1)N[C@H]1COC[C@@H]1O` [Example 57], the concentration for half-maximal inhibition (IC50) stood at 381 nM.

Regarding `O=C(C#Cc1ccc(-c2cccc(OC(F)F)c2)c(C(F)(F)F)c1)N[C@@H]1COC[C@H]1O` [Example 58], the IC50 was found to be 441 nM.

With `O=C(C#Cc1ccc(-c2ccccc2)c(C(F)(F)F)c1)N[C@@H]1COC[C@@H]1O` [Example 59], the IC50 was determined as 444 nM.

In the case of `O=C(C#Cc1ccc(-c2ccccc2)c(C(F)(F)F)c1)N[C@H]1COC[C@H]1O` [Example 60], the IC50 came out at 528 nM.

Regarding `O=C(C#Cc1ccc(-c2ccc(OC(F)F)cc2)c(C(F)(F)F)c1)N1C[C@@H](O)[C@H](O)C1` [Example 61], the IC50 was determined as 611 nM.

With `O=C(C#Cc1ccc(-c2ccc(OC(F)F)cc2)c(C(F)(F)F)c1)N[C@H]1COC[C@@H]1O` [Example 62], the IC50 stood at 594 nM.

Regarding `O=C(C#Cc1ccc(-c2ccc(OC(F)F)cc2)c(C(F)(F)F)c1)N[C@@H]1COC[C@H]1O` [Example 63], the IC50 stood at 422 nM.

Turning to `O=C(C#Cc1ccc(-c2cccc(OC(F)F)c2)c(C(F)(F)F)c1)N1C[C@@H](O)[C@@H](O)C1` [Example 64], the IC50 turned out to be 448 nM.

Take `O=C(C#Cc1ccc(-c2cccc(OC(F)F)c2)c(C(F)(F)F)c1)N1C[C@@H](O)[C@H](O)C1` [Example 65]: the 50% inhibitory concentration (IC50) turned out to be 340 nM.

`O=C(C#Cc1ccc(-c2ccccc2OC(F)(F)F)c(C(F)(F)F)c1)N1C[C@@H](O)[C@H](O)C1` [Example 66]: the 50% inhibitory concentration (IC50) worked out at 48 nM.

With `O=C(C#Cc1ccc(-c2ccccc2OC(F)(F)F)c(C(F)(F)F)c1)N[C@H]1COC[C@@H]1O` [Example 67], the IC50 is 38 nM.

As for `O=C(C#Cc1ccc(-c2ccccc2OC(F)(F)F)c(C(F)(F)F)c1)N[C@@H]1COC[C@H]1O` [Example 68], the IC50 is 64 nM.

Turning to `O=C(C#Cc1ccc(-c2ccccc2OC(F)(F)F)c(C(F)(F)F)c1)NCCO` [Example 69], the IC50 was 190 nM.
